Test results taken from publication PMC6792352, “Limited Chemical Structural Diversity Found to Modulate Thyroid Hormone Receptor in the Tox21 Chemical Library” (Environmental Health Perspectives, 2019).
Structures can show the parent of a compound that is named as a salt.

Assay: in vitro
Conditions: rat, gh3-tre-luc cells

| SMILES | CC50 at 24 h (AC50 (uM) modified / 1000) | further results |
| --- | --- | --- |
| CC(C)(C)OC=O [tert-Butyl formate] | > 100 µM | – |
| OC(c1ccc(Cl)cc1)(c1ccc(Cl)cc1)c1cccnc1 [Parinol] | 64.3 µM | – |
| COc1ccc(C(=O)c2c(C)n(CCN3CCOCC3)c3ccccc23)cc1 [Pravadoline] | – | CC50 at 24 h (AC50 (uM) modified / 1000, Tox21_110001=Tox21_111785, viability, 1 nM T3 present, 24 h): > 50 µM |
| c1ccc2c(c1)[nH]c1ccccc12 [Carbazole] | > 90 µM | – |
| ClC1=C(Cl)[C@]2(Cl)[C@@H]3[C@@H](Cl)[C@H]4O[C@H]4[C@@H]3[C@@]1(Cl)C2(Cl)Cl [Heptachlor epoxide] | – | CC50 at 24 h (AC50 (uM) modified / 1000, Tox21_110001=Tox21_300621, viability, 1 nM T3 present, 24 h): 48.8 µM |
| Cn1nnnc1SCC1=C(C(=O)O)N2C(=O)[C@@H](NC(=O)[C@H](OC=O)c3ccccc3)[C@H]2SC1 [Cefamandole nafate] | > 50 µM | – |
| CCCCCCCCCCCCCCC(=O)O [Pentadecanoic acid] | > 90 µM | – |
| CCNC(=O)NCc1cccc(Cl)c1 [Lozilurea] | > 50 µM | – |
| Brc1cccc(-c2ccccc2)c1 [3-Bromobiphenyl] | – | CC50 at 24 h (AC50 (uM) modified / 1000, Tox21_110001=Tox21_200121, viability, 1 nM T3 present, 24 h): > 90 µM |
| CC(N)C(=O)OC(C)(C)Cc1ccc(Cl)cc1 (stereo not drawn) [Alaproclate] | 25.5 µM | – |
| CCO[Si](CCCN=C=O)(OCC)OCC [(3-Isocyanatopropyl)triethoxysilane] | > 90 µM | – |
| O=C(O)C1C(C(=O)O)[C@@]2(Cl)C(Cl)=C(Cl)[C@]1(Cl)C2(Cl)Cl (stereo partly drawn) [Chlorendic acid] | > 90 µM | – |
| CCCCCCC(C)(C)C(=O)O [Calcium neodecanoate] | > 90 µM | – |
| CCC(C)(NC(=O)c1cc(Cl)c(C)c(Cl)c1)C(=O)CCl (stereo not drawn) [Zoxamide] | 15 µM | – |
| Sc1ncccn1 [Pyrimidine-2-thiol] | > 90 µM | – |
| CN1C(=S)CN=C(c2ccccc2)c2cc(Cl)ccc21 [Sulazepam] | > 50 µM | – |
| CC(C)(C)c1cc([N+](=O)[O-])cc([N+](=O)[O-])c1O [Dinoterb] | – | CC50 at 24 h (AC50 (uM) modified / 1000, Tox21_110001=Tox21_300743, viability, 1 nM T3 present, 24 h): 8.14 µM |
| O=c1oc2cc(O)ccc2s1 [Thioxolone] | > 50 µM | – |
| O=C(Nc1ccccc1)c1ccccc1I [Benodanil] | – | CC50 at 24 h (AC50 (uM) modified / 1000, Tox21_110001=Tox21_300420, viability, 1 nM T3 present, 24 h): > 90 µM |
| CC(C)(C)NCC(O)c1ccccc1Cl (stereo not drawn) [Tulobuterol hydrochloride] | > 50 µM | – |
| CNP(=O)(OC)Oc1ccc(C(C)(C)C)cc1Cl (stereo not drawn) [Crufomate] | – | CC50 at 24 h (AC50 (uM) modified / 1000, Tox21_110001=Tox21_302262, viability, 1 nM T3 present, 24 h): > 90 µM |
| N#CC(CCc1ccc(Cl)cc1)(Cn1cncn1)c1ccccc1 (stereo not drawn) [Fenbuconazole] | 49.1 µM | – |
| O=C(c1ccccc1O)c1ccccc1O [2,2'-Dihydroxybenzophenone] | > 90 µM | – |
| COc1cc(C=O)ccc1OC(=O)C(C)C [Vanillin isobutyrate] | > 90 µM | – |
| CCCCC(CC)COC(=O)c1ccc(N(C)C)cc1 (stereo not drawn) [2-Ethylhexyl 4-(dimethylamino)benzoate] | > 90 µM | – |
| C[N+]1(C)CCN(CC(O)(c2ccccc2)C2CCCCC2)CC1 (stereo not drawn) [Hexocyclium] | > 50 µM | – |
| c1ccc2c(CC3=NCCN3)cccc2c1 [Naphazoline hydrochloride] | > 50 µM | – |

| SMILES | CC50 at 24 h (AC50 (uM) modified / 1000) | further results |
| --- | --- | --- |
| CC1=C(CC(=O)O)c2cc(F)ccc2/C1=C\c1ccc([S+](C)[O-])cc1 (stereo not drawn) [Sulindac] | > 90 µM | – |
| CC(C)[C@]12CC(=O)[C@H](C)[C@H]1C2 [alpha-Thujone] | – | CC50 at 24 h (AC50 (uM) modified / 1000, Tox21_110001=Tox21_200868, viability, 1 nM T3 present, 24 h): > 90 µM |
| FC(F)(F)COCC(F)(F)F [Flurothyl] | > 50 µM | – |
| CCCC(=O)O[C@]1(C(=O)CCl)[C@@H](C)C[C@H]2[C@@H]3CCC4=CC(=O)C=C[C@]4(C)[C@@]3(F)C(=O)C[C@@]21C [Clobetasone butyrate] | > 50 µM | – |
| COc1cc(NS(=O)(=O)c2ccc(N)cc2)nc(C)n1 [Sulfamethomidine] | > 50 µM | – |
| CCOC(=O)C(C)O (stereo not drawn) [Ethyl lactate] | > 90 µM | – |
| CN(C)C(=O)C(CCN1CCC(O)(c2ccc(Cl)cc2)CC1)(c1ccccc1)c1ccccc1 [Loperamide] | 6.34 µM | – |
| CC(C)OC(=S)S [Proxan-sodium] | > 90 µM | – |
| O=C1C(Cl)=C(Cl)C(=O)c2ccccc21 [Dichlone] | – | CC50 at 24 h (AC50 (uM) modified / 1000, Tox21_110001=Tox21_201652, viability, 1 nM T3 present, 24 h): 31.4 µM; CC50 at 24 h (AC50 (uM) modified / 1000, Tox21_110001=Tox21_303031, viability, 1 nM T3 present, 24 h): 7.73 µM |
| FC(F)(F)c1cccc(C2=CCN(CCc3ccc4ccccc4c3)CC2)c1 [Xaliproden hydrochloride] | > 50 µM | – |
| CC(=O)OCC(C)OC(C)=O (stereo not drawn) [Propylene glycol diacetate] | > 90 µM | – |
| CC(=O)NCCCCCC(=O)O [Acexamic acid] | > 50 µM | – |
| O=C(O)Cc1ccc(Cl)cc1Cl [2,4-Dichlorophenylacetic acid] | > 90 µM | – |
| O=C(N[C@H](c1ccccc1)[C@@H]1CN2CCC1CC2)c1c(Cl)ccc(C(F)(F)F)c1Cl [SSR 103800] | 9.74 µM | – |
| CCCCCCC(=O)O[C@H]1CC[C@H]2[C@@H]3CCc4cc(O)ccc4[C@H]3CC[C@]12C [Estradiol enanthate] | > 50 µM | – |
| CCCCCCCCCCCCCCCC(=O)OC/C=C(C)/C=C/C=C(C)/C=C/C1=C(C)CCCC1(C)C [Retinol palmitate] | > 50 µM | – |
| O=C1OC(=O)c2cccc3cccc1c23 [1H,3H-Naphtho(1,8-cd)pyran-1,3-dione] | > 90 µM | – |
| CCCC(=O)c1ccccc1 [Butyrophenone] | > 90 µM | – |
| N#CS [Potassium thiocyanate] | > 90 µM | – |
| CCCOC(=O)c1ccccc1O [Propyl salicylate] | > 50 µM | – |
| Clc1ccc(C(Cl)(Cl)Cl)cc1 [4-Chlorobenzotrichloride] | > 90 µM | – |
| CCCCOc1ccc(CC(=O)NO)cc1 [Bufexamac] | > 20 µM | – |
| CC(C)CCCC(C)CCCC(C)CCCCC(C)CCCC(C)CCCC(C)C (stereo not drawn) [Squalane] | > 50 µM | – |
| CC(C)(S)[C@@H](N)C(=O)O [D-Penicillamine] | > 50 µM | – |
| CC(C)OC(=O)C(C)(C)Oc1ccc(C(=O)c2ccc(Cl)cc2)cc1 [Fenofibrate] | 78.6 µM | – |
| NC(=O)CN1CC(O)CC1=O (stereo not drawn) [Oxiracetam] | > 50 µM | – |
| N#Cc1c[nH]cc1-c1cccc2c1OC(F)(F)O2 [Fludioxonil] | 35.9 µM | – |

| SMILES | CC50 at 24 h (AC50 (uM) modified / 1000) | further results |
| --- | --- | --- |
| CC(C)CCCCCCCOC(=O)c1ccccc1C(=O)OCCCCCCCC(C)C [Diisodecyl phthalate] | > 90 µM | – |
| COc1cc(C(C)=O)ccc1OCCCN1CCC(c2noc3cc(F)ccc23)CC1 [Iloperidone] | 15.2 µM | – |
| COP(=O)(NC(C)=O)SC (stereo not drawn) [Acephate] | – | CC50 at 24 h (AC50 (uM) modified / 1000, Tox21_110001=Tox21_202204, viability, 1 nM T3 present, 24 h): > 90 µM |
| O=C1c2ccccc2C(=O)C1c1ccc(Cl)cc1 [Clorindione] | > 50 µM | – |
| C[C@H]1[C@H]2Cc3ccc(O)cc3[C@]1(C)CCN2CCc1ccccc1 [(-)-Phenazocine hydrobromide] | – | CC50 at 24 h (AC50 (uM) modified / 1000, Tox21_110001=Tox21_112835, viability, 1 nM T3 present, 24 h): 48.2 µM |
| Cc1ccc(C)o1 [2,5-Dimethylfuran] | > 90 µM | – |
| CN1[C@@H](CC(=O)c2ccccc2)CCC[C@H]1C[C@H](O)c1ccccc1 [Lobeline] | > 50 µM | – |
| O=Cc1ccccc1[N+](=O)[O-] [2-Nitrobenzaldehyde] | > 90 µM | – |
| O=C(O)c1cccc(/C=C2/C[C@@H]3[C@@H](/C=C/[C@@H](O)C4CCCCC4)[C@H](O)C[C@@H]3O2)c1 [Taprostene sodium salt] | > 50 µM | – |
| CCOC(=O)CC(=O)OCC [Diethyl propanedioate] | > 90 µM | – |
| OC[C@H]1O[C@H](O[C@]2(CCl)O[C@H](CCl)[C@@H](O)[C@@H]2O)[C@H](O)[C@@H](O)[C@H]1Cl [Sucralose] | > 90 µM | – |
| CC(=O)CC(=O)OC(C)(C)C [tert-Butyl 3-oxobutanoate] | > 90 µM | – |
| CN1C[C@@H]2C[C@H]1CN2c1cc2c(cc1F)c(=O)c(C(=O)O)cn2C1CC1 [Danofloxacin] | > 50 µM | – |
| COCCOC [Ethylene glycol dimethyl ether] | > 90 µM | – |
| Cc1cc(O)ccc1N [4-Amino-m-cresol] | 29.9 µM | – |
| N#CNC(=N)N [Cyanoguanidine] | > 90 µM | – |
| CCCC[N+](C)(CCCC)CCCC [N,N-Dibutyl-N-methylbutan-1-aminium chloride] | > 90 µM | – |
| C[C@]12CC[C@H]3[C@@H](CCC4=CC(=O)CC[C@@]43C)[C@@H]1CC[C@H]2O [Epitestosterone] | – | CC50 at 24 h (AC50 (uM) modified / 1000, Tox21_110001=Tox21_111058, viability, 1 nM T3 present, 24 h): > 50 µM |
| O=C(O)CN(CC(=O)O)Cc1cc2c(cc1O)Oc1cc(O)c(CN(CC(=O)O)CC(=O)O)cc1C21OC(=O)c2ccccc21 [Oftasceine] | > 50 µM | – |
| Cc1c(Cl)cccc1Nc1ccccc1C(=O)O [Tolfenamic acid] | > 50 µM | – |
| CCCCCCCCCCCCOC(=O)c1ccc(O)cc1 [Dodecylparaben] | 26 µM | – |
| C/C=C/c1ccc2c(c1)OCO2 [Isosafrole] | – | CC50 at 24 h (AC50 (uM) modified / 1000, Tox21_110001=Tox21_201783, viability, 1 nM T3 present, 24 h): > 90 µM |
| N=C(N)NC(=O)c1nc(Cl)c(N)nc1N [Amiloride hydrochloride] | > 90 µM | – |
| O=C(O)c1cc(C(=O)O)cc(S(=O)(=O)O)c1 [Sodium 5-sulfoisophthalate] | > 90 µM | – |
| CCCCCCCC/C=C\CCCCCCCC(N)=O [(9Z)-Octadec-9-enamide] | > 90 µM | – |
| CCCc1c(OCCCCc2nnn[nH]2)ccc(C(C)=O)c1O [Tomelukast] | > 50 µM | – |
